Patent US20230227405A1, “5-OXOPYRROLIDINE-3-CARBOXAMIDES AS NAV1.8 INHIBITORS” (MERCK SHARP & DOHME CORP., priority 2020, published 2023)

molecular target: T1, human Nav1.8 (Homo sapiens, UniProt Q9Y5Y9); test: Qube® automated patch-clamp assay, Nav1.8; type: cell-based; settings: human Nav1.8 stably expressed in HEK 293 cells; whole-cell voltage clamp, room temperature; read-out: IC50 values (nM) for Examples in the Nav1.8 Qube® Assay
T1 construct: expressed in transfected cells
Experimental: Compounds were tested on human Nav1.8 and Nav1.5 channels stably expressed in human embryo kidney (HEK) 293 cells. Sodium current measurements on Qube® were conducted as follows: automated 384-well patch-clamp assays on the Qube® platform (Sophion Biosciences) were used to measure the inhibition of sodium flow through human Nav1.8 and Nav1.5 channels. Whole-cell voltage-clamp recordings were performed in QChips® (Sophion Biosciences) at room temperature. Nav1.8 current measurements on Qube® were obtained as follows: Nav1.8 currents were elicited with a 10 second 1 Hertz (Hz) pulse train from a holding potential of −90 millivolts (mV), delivered to the cells once per minute in the control condition (DMSO only) and after compound addition. The 1 hertz pulse train stimulation consisted of ten test pulses to 10 millivolt (mV) for 20 milliseconds (ms), each of which was followed by a 980 millisecond repolarization to −67 millivolts. At the end of the 10 second pulse train stimulation, a 5 second hyperpolarization step to −100 millivolt (mV) was used to recover Nav1.8 from fast inactivation. The peak currents elicited by the 1st and 10th test pulses were used to determine IC50 values for resting inhibition and inactivated state inhibition. Nav1.5 current measurements on Qube® were obtained as follows: Nav1.5 currents were elicited with a 20 second 3 Hertz pulse train in the control condition (DMSO only) and after compound addition. The pulse train consisted of sixty 20 millisecond test pulses to 0 millivolt from a holding potential of −80 millivolt (mV). The average peak currents elicited by the last 3 test pulses were used to determine IC50 values for Nav1.5 inhibition.
The following buffers were used for the Qube® recordings: External buffer for Nav1.8 Qube® recording: 150 NaCl, 2 CaCl2, 5 KCl, 1 Mg Cl2, 10 HEPES, 12 Dextrose; External buffer for Qube® Nav1.5 recording: 120 N-Methyl-D-Glucamine, 40 NaCl, 1 KCl, 2.7 CaCl2, 5 HEPES, 0.5 MgCl2; and Internal buffer for Qube® recording: 120 CsF, 30 CsCl, 10 EGTA, 5 HEPES, 5 NaF, 2 MgCl2.
For all Qube® experiments offline analysis was used to determine percent inhibition as a function of drug concentration. IC50 values were determined by fitting to the Hill equation.

T1 sequence (Q9Y5Y9 whole entry): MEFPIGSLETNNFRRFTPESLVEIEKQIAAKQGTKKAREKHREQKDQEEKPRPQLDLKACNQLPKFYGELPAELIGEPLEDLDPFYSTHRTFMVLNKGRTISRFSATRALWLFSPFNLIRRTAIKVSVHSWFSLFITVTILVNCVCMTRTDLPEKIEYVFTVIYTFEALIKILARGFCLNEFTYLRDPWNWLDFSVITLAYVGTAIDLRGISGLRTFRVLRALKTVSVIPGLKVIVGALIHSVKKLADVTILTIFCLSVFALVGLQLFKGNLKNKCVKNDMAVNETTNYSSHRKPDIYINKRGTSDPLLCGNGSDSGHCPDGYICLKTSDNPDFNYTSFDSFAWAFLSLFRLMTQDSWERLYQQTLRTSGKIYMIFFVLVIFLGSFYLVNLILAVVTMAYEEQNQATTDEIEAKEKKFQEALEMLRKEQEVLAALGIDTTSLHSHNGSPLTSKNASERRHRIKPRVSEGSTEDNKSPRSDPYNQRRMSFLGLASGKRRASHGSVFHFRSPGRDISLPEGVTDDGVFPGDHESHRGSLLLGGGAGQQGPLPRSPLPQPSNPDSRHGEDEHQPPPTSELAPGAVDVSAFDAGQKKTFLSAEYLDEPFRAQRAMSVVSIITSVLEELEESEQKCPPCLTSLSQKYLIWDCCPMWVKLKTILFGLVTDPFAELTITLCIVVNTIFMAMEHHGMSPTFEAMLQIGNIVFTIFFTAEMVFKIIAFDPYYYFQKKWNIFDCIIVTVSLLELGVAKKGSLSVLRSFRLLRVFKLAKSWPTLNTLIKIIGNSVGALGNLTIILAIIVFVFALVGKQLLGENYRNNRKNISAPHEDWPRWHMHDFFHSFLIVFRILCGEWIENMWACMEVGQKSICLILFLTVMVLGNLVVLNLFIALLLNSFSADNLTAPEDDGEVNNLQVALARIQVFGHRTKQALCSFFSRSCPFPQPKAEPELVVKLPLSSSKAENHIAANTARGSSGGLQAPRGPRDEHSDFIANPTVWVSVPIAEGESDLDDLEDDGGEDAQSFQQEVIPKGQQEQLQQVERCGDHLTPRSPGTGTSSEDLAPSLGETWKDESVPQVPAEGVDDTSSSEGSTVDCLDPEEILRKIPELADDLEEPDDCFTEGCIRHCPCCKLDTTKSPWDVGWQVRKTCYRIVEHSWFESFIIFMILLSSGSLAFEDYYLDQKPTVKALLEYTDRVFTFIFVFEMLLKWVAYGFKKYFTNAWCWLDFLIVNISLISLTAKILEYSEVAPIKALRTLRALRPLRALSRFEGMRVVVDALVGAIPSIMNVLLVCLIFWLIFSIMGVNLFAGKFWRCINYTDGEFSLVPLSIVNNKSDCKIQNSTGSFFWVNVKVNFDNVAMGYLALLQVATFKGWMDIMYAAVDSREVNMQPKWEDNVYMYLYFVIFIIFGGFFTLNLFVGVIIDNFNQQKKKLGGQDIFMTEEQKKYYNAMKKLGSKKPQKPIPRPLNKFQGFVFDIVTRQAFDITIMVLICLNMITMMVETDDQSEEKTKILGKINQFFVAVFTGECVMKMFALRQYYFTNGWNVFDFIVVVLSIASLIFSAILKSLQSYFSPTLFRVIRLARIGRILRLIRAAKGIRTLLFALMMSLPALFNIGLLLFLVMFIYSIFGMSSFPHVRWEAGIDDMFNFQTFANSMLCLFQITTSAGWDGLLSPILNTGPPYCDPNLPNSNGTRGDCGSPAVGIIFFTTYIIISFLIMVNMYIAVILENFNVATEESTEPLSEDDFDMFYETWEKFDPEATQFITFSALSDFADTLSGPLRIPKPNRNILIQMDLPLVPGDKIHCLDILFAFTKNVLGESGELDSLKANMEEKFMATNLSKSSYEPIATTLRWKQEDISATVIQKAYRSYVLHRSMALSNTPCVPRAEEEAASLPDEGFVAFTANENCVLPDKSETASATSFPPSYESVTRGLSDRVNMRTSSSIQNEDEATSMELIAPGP

Row | IC50 | Structure (SMILES)
1 | 13 nM | O=C1C[C@H](C(=O)NC(c2ccc(Cl)cc2)c2ccc(F)c(Cl)c2)CN1 (mixture of isomers) [Example 1B, (S—N—((R and S)-(3-chloro-4-fluorophenyl)(4-chlorophenyl)methyl)-5-oxopyrrolidine-3-carboxamide]
2 | 3.4 nM | O=C1C[C@H](C(=O)NC(c2ccc(Cl)cc2)c2ccc(F)c(Cl)c2)CN1 (single isomer, unassigned) [Example 1A, (S—N—((R or S)-(3-chloro-4-fluorophenyl)(4-chlorophenyl)methyl)-5-oxopyrrolidine-3-carboxamide]
3 | 2.6 nM | O=C1C[C@H](C(=O)NC(c2ccc(Cl)cc2)c2ccc(F)c(C(F)(F)F)c2)CN1 (single isomer, unassigned) [Example 11A, (S)-N-((R or S)-(4-chlorophenyl)(4-fluoro-3-(trifluoromethyl)phenyl)methyl)-5-oxopyrrolidine-3-carboxamide]
4 | 17 nM | O=C1C[C@H](C(=O)NC(c2ccc(Cl)cc2)c2ccc(F)c(C(F)(F)F)c2)CN1 (single isomer, unassigned) [Example 11B, (S)-N-((R or S)-(4-chlorophenyl)(4-fluoro-3-(trifluoromethyl)phenyl)methyl)-5-oxopyrrolidine-3-carboxamide]
5 | 28 nM | O=C1C[C@H](C(=O)NC(c2ccc(Cl)cc2)c2ccc(OC(F)(F)F)cc2)CN1 (single isomer, unassigned) [Example 12A, (S)-N-((R or S)-(4-chlorophenyl)(4-(trifluoromethoxy)phenyl)methyl)-5-oxopyrrolidine-3-carboxamide]
6 | 4.1 nM | O=C1C[C@H](C(=O)NC(c2ccc(Cl)cc2)c2ccc(OC(F)(F)F)cc2)CN1 (single isomer, unassigned) [Example 12B, (S)-N-((R or S)-(4-chlorophenyl)(4-(trifluoromethoxy)phenyl)methyl)-5-oxopyrrolidine-3-carboxamide]
7 | 139 nM | N#Cc1ccc(C(NC(=O)[C@@H]2CNC(=O)C2)c2ccc(F)c(Cl)c2)cc1 (single isomer, unassigned) [Example 13A, (S)-N-((R or S)-(3-chloro-4-fluorophenyl)(4-cyanophenyl)methyl)-5-oxopyrrolidine-3-carboxamide]
8 | 129 nM | N#Cc1ccc(C(NC(=O)[C@@H]2CNC(=O)C2)c2ccc(F)c(Cl)c2)cc1 (single isomer, unassigned) [Example 13B, (S)-N-((R or S)-(3-chloro-4-fluorophenyl)(4-cyanophenyl)methyl)-5-oxopyrrolidine-3-carboxamide]
9 | 1.2 nM | O=C1C[C@H](C(=O)NC(c2ccc(Cl)cc2)c2ccc(Cl)c(C(F)(F)F)c2)CN1 (single isomer, unassigned) [Example 14A, (S—N—((R or S)-(4-chloro-3-(trifluoromethyl)phenyl)(4-chlorophenyl)methyl)-5-oxopyrrolidine-3-carboxamide]
10 | 9.4 nM | O=C1C[C@H](C(=O)NC(c2ccc(Cl)cc2)c2ccc(Cl)c(C(F)(F)F)c2)CN1 (single isomer, unassigned) [Example 14B, (S—N—((R or S)-(4-chloro-3-(trifluoro-methyl)phenyl)(4-chlorophenyl)methyl)-5-oxopyrrolidine-3-carboxamide]
11 | 4.2 nM | O=C1C[C@H](C(=O)NC(c2cnc(C(F)(F)F)c(Cl)c2)c2ccc(F)c(Cl)c2F)CN1 (single isomer, unassigned) [Example 15, (S—N—((R or S)-(3-chloro-2,4-difluorophenyl)(5-chloro-6-(trifluoromethyl)pyridin-3-yl)methyl)-5-oxopyrrolidine-3-carboxamide]
12 | 46 nM | O=C1C[C@H](C(=O)NC(c2ccc(F)c(Cl)c2F)[C@H]2C[C@H](C(F)(F)F)C2)CN1 (single isomer, unassigned) [Example 16, (S—N—((R or S)-(3-chloro-2,4-difluorophenyl)((trans)-3-(trifluoromethyl)cyclobutyl)methyl)-5-oxopyrrolidine-3-carboxamide]
13 | 11 nM | O=C1C[C@H](C(=O)NC(c2ccc(C(F)(F)F)cc2)c2ccc(F)c(Cl)c2)CN1 (single isomer, unassigned) [Example 17, (S—N—((R or S)-(3-chloro-4-fluorophenyl)(4-(trifluoromethyl)phenyl)methyl)-5-oxopyrrolidine-3-carboxamide]
14 | 16 nM | O=C1C[C@H](C(=O)NC(c2ccc(OC(F)(F)F)cc2)c2cccc(Cl)c2)CN1 (single isomer, unassigned) [Example 19A, (S)-N-((R or S)-(3-chlorophenyl)(4-(trifluoromethoxy)phenyl)methyl)-5-oxopyrrolidine-3-carboxamide]
15 | 17 nM | O=C1C[C@H](C(=O)NC(c2ccc(OC(F)(F)F)cc2)c2cccc(Cl)c2)CN1 (single isomer, unassigned) [Example 19B, (S)-N-((R or S)-(3-chlorophenyl)(4-(trifluoromethoxy)phenyl)methyl)-5-oxopyrrolidine-3-carboxamide]
16 | 51 nM | O=C1C[C@H](C(=O)NC(c2ccc(F)c(Cl)c2)c2ccc(Cl)c(C(F)(F)F)n2)CN1 (single isomer, unassigned) [Example 20A, (S)-N-((R or S)-(3-chloro-4-fluorophenyl)(5-chloro-6-(trifluoromethyl)-pyridin-2-yl)methyl)-5-oxopyrrolidine-3-carboxamide]
17 | 2.9 nM | O=C1C[C@H](C(=O)NC(c2ccc(F)c(Cl)c2)c2ccc(Cl)c(C(F)(F)F)n2)CN1 (single isomer, unassigned) [Example 20B, (S)-N-((R or S)-(3-chloro-4-fluorophenyl)(5-chloro-6-(trifluoromethyl)-pyridin-2-yl)methyl)-5-oxopyrrolidine-3-carboxamide]
18 | 2220 nM | CC1(C)CC(C(NC(=O)[C@@H]2CNC(=O)C2)c2ccc(F)c(Cl)c2F)C1 (single isomer, unassigned) [Example 21A, (S—N—((R or S)-(3-chloro-2,4-difluorophenyl)(3,3-dimethylcyclobutyl)methyl)-5-oxopyrrolidine-3-carboxamide]
19 | 17 nM | CC1(C)CC(C(NC(=O)[C@@H]2CNC(=O)C2)c2ccc(F)c(Cl)c2F)C1 (single isomer, unassigned) [Example 21B, (S—N—((R or S)-(3-chloro-2,4-difluorophenyl)(3,3-dimethylcyclobutyl)methyl)-5-oxopyrrolidine-3-carboxamide]
20 | 7460 nM | CC1C(=O)NCC1C(=O)NC(c1ccc(Cl)cc1)c1ccc(Cl)cc1 (single isomer, unassigned) [Example 27A, (3(R or S),4(R or S)—N-(bis(4-chlorophenyl)methyl)-4-methyl-5-oxopyrrolidine-3-carboxamide]
21 | 277 nM | CC1C(=O)NCC1C(=O)NC(c1ccc(Cl)cc1)c1ccc(Cl)cc1 (single isomer, unassigned) [Example 27B, (3(R or S),4(R or S)—N-(bis(4-chlorophenyl)methyl)-4-methyl-5-oxopyrrolidine-3-carboxamide]
22 | 3480 nM | CC1C(=O)NCC1C(=O)NC(c1ccc(Cl)cc1)c1ccc(Cl)cc1 (single isomer, unassigned) [Example 27C, (3(R or S),4(R or S)—N-(bis(4-chlorophenyl)methyl)-4-methyl-5-oxopyrrolidine-3-carboxamide]
23 | 7650 nM | CC1C(=O)NCC1C(=O)NC(c1ccc(Cl)cc1)c1ccc(Cl)cc1 (single isomer, unassigned) [Example 27D, (3(R or S),4(R or S)—N-(bis(4-chlorophenyl)methyl)-4-methyl-5-oxopyrrolidine-3-carboxamide]
24 | 820 nM | N#Cc1cccc(C(NC(=O)[C@@H]2CNC(=O)C2)c2cccc(Cl)c2)c1 (stereo partly drawn) [Example 2, (3S)-N-((3-chlorophenyl)(3-cyanophenyl)methyl)-5-oxopyrrolidine-3-carboxamide]
25 | 186 nM | O=C1C[C@H](C(=O)NC(c2ccc(Cl)cc2)c2ccc(C3CC3)cc2)CN1 (stereo partly drawn) [Example 3, (3S)-N-((4-chlorophenyl)(4-cyclopropylphenyl)methyl)-5-oxopyrrolidine-3-carboxamide]
26 | 108 nM | CC(C)c1ccc(C(NC(=O)[C@@H]2CNC(=O)C2)c2ccc(Cl)cc2)cc1 (stereo partly drawn) [Example 4, (3S)-N-((4-chlorophenyl)(4-isopropylphenyl)methyl)-5-oxopyrrolidine-3-carboxamide]
27 | 11 nM | COc1cc(Cl)ccc1C(NC(=O)[C@@H]1CNC(=O)C1)c1ccc(Cl)cc1 (stereo partly drawn) [Example 5, (3S)-N-((4-chloro-2-methoxyphenyl)(4-chlorophenyl)methyl)-5-oxopyrrolidine-3-carboxamide]
